This note sets out measurements from patent publication US7105534B2, “Imidazo[1,2-α]pyridine ether compounds as ion channel modulators” (Cardiome Pharma Corp., priority 2000, dated 2006).

Structures can show the parent of a compound that is named as a salt.

Usually IC50 stands for the midpoint of a concentration-inhibition curve. Read a low IC50 as greater potency in that assay.

One series deals with T1, HERG (Homo sapiens, UniProt Q12809).
T1 construct: expressed in transfected cells; host or cells: HEK cells, transient transfection, vector pCDNA3
T1 sequence (Q12809 whole entry): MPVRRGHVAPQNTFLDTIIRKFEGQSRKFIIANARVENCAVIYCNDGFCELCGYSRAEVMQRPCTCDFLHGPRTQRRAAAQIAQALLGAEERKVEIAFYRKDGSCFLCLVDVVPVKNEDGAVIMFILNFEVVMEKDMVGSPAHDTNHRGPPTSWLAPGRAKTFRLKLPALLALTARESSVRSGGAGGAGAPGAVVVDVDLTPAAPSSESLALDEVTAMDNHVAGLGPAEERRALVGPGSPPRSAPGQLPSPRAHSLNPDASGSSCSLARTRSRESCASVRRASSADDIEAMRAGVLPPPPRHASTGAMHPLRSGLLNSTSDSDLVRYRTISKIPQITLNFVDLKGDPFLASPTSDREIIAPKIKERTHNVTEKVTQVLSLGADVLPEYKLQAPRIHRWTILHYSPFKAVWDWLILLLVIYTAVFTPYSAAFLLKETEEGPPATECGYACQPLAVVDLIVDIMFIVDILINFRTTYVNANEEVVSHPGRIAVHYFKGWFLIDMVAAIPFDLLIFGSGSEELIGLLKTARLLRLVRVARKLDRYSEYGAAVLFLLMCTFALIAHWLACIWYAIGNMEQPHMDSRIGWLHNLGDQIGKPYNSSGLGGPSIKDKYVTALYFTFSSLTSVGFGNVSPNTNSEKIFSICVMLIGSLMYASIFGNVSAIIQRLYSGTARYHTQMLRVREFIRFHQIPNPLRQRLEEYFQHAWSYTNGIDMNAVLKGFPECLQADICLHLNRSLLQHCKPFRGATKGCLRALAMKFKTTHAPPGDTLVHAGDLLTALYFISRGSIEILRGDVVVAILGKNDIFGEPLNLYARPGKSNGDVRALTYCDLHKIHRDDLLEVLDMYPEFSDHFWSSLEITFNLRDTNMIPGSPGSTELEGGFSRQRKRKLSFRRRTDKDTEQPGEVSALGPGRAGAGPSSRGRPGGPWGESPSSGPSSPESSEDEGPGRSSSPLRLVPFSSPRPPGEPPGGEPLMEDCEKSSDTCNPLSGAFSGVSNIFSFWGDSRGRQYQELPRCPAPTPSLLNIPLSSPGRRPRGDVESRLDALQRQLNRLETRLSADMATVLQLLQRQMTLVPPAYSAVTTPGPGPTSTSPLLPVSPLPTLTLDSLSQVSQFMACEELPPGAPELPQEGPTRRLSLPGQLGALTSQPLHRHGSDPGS
Kind of series: Patch-clamp inhibition of cloned ion channel current in transfected HEK cells: HERG. It is filed as cell-based. Conditions: whole-cell patch clamp. The method, then: (§1) The relevant cloned ion channels (e.g. cardiac hH1, Kv1.4, Kv1.5, Kv4.2, Kv2.1, HERG etc.) are studied by transient transfection into HEK cells using the mammalian expression vector pCDNA3. Transfections for each channel type are carried out separately to allow individual study of the ion channel of interest. Cells expressing channel protein are detected by cotransfecting cells with the vector pHook-1 (Invitrogen, San Diego, Calif., USA). […] Equal concentrations of individual channel and pHook DNA are incubated with 10× concentration of lipofectAce in Modified Eagle's Medium (MEM, Canadian Life Technologies) and incubated with parent HEK cells plated on 25 mm culture dishes. After 3–4 hours the solution is replaced with a standard culture medium plus 20% fetal bovine serum and 1% antimycotic. Transfected cells are maintained at 37C in an air/5% CO2 incubator in 25 mm Petri dishes plated on glass coverslips for 24–48 hours to allow channel expression to occur. 20 min prior to experiments, cells are treated with beads coated with phOX. After 15 min, excess beads are […] off with cell culture medium and cells which had beads stuck to them are used for electrophysiological tests.
(§2) For whole-cell recording the control pipette filling solution contained (in mM): KCl, 130; EGTA, 5; MgCl2, 1; HEPES, 10; Na2ATP, 4; GTP, 0.1; and is adjusted to pH 7.2 with KOH. The control bath solution contained (in mM): NaCl, 135; KCI, 5; sodium acetate, 2.8; MgCl2, 1; HEPES, 10; CaCl2, 1; and is adjusted to pH 7.4 with NaOH. The test ion channel modulating compound is dissolved to 10 mM stock solutions in water and used at concentrations between 0.5 and 100 μM.
(§3) Coverslips containing cells are removed from the incubator before experiments and placed in a superfusion chamber (volume 250 μl) containing the control bath solution at 22C to 23C. All recordings are made via the variations of the patch-clamp technique, using an Axopatch 200A amplifier (Axon Instruments, CA). Patch electrodes are pulled from thin-walled borosilicate glass (World Precision Instruments; FL) on a horizontal micropipette puller, fire-polished, and filled with appropriate solutions. Electrodes had resistances of […] when filled with control filling solution. Analog capacity compensation is used in all whole cell measurements. In some experiments, leak subtraction is applied to data. Membrane potentials have not been corrected for any junctional potentials that arose between the pipette and bath solution. Data are filtered at 5 to 10 kHz before digitization and stored on a microcomputer for later analysis using the pClamp6 software (Axon Instruments, Foster City, Calif.). Due to the high level of expression of channel cDNA's in HEK cells, there is no need for signal averaging. The average cell capacitance is quite small, and the absence of ionic current at negative membrane potentials allowed faithful leak subtraction of data.
(§4) The concentration-response curves for changes in peak and steady-state current produced by the test compound are computer-fitted to the Hill equation: f=1−1/[1+([…])^n] [1]
(§5) where f is the fractional current (f=Idrug/Icontrol) at drug concentration [D]; IC50 is the concentration producing half-maximal inhibition and n is the Hill coefficient.
(§6) Compounds of the present invention may be evaluated by this method. […] Block is determined from the decrease in peak hH1 Na^+ current, or in steady-state Kv1.5 and integrated Kv4.2 current in the presence of drug. To record Na^+ current, cells are depolarized from the holding potential of −100 mV to a voltage of −30 mV for 10 ms to fully open and inactivate the channel. To record Kv1.5 and Kv4.2 current, cells are depolarized from the holding potential of −80 mV to a voltage of +60 mV for 200 ms to fully open the channel. Currents are recorded in the steady-state at a range of drug concentrations during stimulation every 4 s. […]
A general note: The patch-clamp technique gives a direct electrical read-out from membranes.

The target in a further series is T2, Kv1.5 (Homo sapiens, UniProt P22460).
T2 construct: expressed in transfected cells; host or cells: HEK cells, transient transfection, vector pCDNA3
T2 sequence (P22460 whole entry): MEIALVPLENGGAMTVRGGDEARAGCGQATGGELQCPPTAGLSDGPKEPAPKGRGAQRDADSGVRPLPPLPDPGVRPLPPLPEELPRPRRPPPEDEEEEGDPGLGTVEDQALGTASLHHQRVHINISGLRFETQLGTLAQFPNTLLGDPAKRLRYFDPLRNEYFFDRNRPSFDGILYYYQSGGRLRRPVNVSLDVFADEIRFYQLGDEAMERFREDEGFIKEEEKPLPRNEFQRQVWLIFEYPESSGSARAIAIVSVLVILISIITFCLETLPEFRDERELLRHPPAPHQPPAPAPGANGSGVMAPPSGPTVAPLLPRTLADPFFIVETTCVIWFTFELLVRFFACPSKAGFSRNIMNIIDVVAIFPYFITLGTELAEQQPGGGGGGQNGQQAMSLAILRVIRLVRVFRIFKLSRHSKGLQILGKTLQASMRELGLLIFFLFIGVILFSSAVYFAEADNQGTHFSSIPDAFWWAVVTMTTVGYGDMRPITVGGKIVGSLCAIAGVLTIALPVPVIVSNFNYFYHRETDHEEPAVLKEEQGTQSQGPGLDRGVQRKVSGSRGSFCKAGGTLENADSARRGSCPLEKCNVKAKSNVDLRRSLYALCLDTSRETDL
As to the kind of experiment: Patch-clamp inhibition of cloned ion channel current in transfected HEK cells: Kv1.5. It is filed as cell-based. Conditions: steady-state current, -80 mV to +60 mV. The method, then: as §1, §2, §3, §4, §5, §6

`Clc1ccc(CCCOc2cccn3c4c(nc23)CCCC4)c(Cl)c1` [Compound 27, 4-[3-(2,4-DICHLOROPHENYL)PROPOXY]-6,7,8,9-TETRAHYDROBENZO[4,5]IMIDAZO-[1,2-α]PYRDINE MMONOHYDROCHLORIDE]: the concentration for half-maximal inhibition (IC50) is 0.1 µM at HERG and 0.6 µM against Kv1.5.

Consider `Cc1cn2c(C)ccc(OCCCc3ccc(Cl)cc3Cl)c2n1` [Compound 34, 8-[3-(2,4-DICHLOROPHENYL)PROPOXY]-2,5-DIMETHYLIMIDAZO[1,2-α]PYRIDINE MONOHYDROCHLORIDE], for which the values for the IC50 on HERG and against Kv1.5 were 0.04 µM and 1 µM, respectively. The matching figures for `CNCc1c(C)nc2c(OCCCc3ccc(Cl)cc3Cl)cccn12` [Compound 24, 8-[3-(2,4-DICHLOROPHENYL)PROPOXY]-3-[(METHYLAMINO)METHYL]-2-METHYL-IMIDAZO[1,2-α]PYRIDINE DIHYDROCHLORIDE]: 0.2 µM and 2 µM. The matching figures for `Cc1nc2c(OCC3(c4ccccc4)CC3)cccn2c1N` [Compound 43, 3-AMINO-2-METHYL-8-[(1-PHENYL-CYCLOPROPYL)METHOXy]IMIDAZO[1,2-α]PYRIDINE MONOHYDROCHLORIDE]: 0.7 µM and 1.6 µM.

In the case of `CC(C)c1cn2cccc(OCC3(c4ccccc4)CC3)c2n1` [Compound 38, 2-ISOPROPYL-8-[(1-PHENYL-CYCLOPROPYL)METHOXY]IMIDAZO[1,2-α]PYRIDINE MONOHYDROCHLORIDE], the IC50 came to 1 µM against HERG and 0.4 µM against Kv1.5. As to `Cc1nc2c(OCCCc3ccc(Cl)cc3Cl)cccn2c1C(=O)O` [Compound 37, SODIUM 8-[3-(2,4-DICHLOROPHENYL)PROPOXY]-2-METHYLIMIDAZO[1,2-α]PYRIDINE-3-CARBOXYLATE], the IC50 came to 4 µM on HERG and 18 µM at Kv1.5. Take `Cc1cn2c(C)ccc(OCC3(c4ccccc4)CC3)c2n1` [Compound 33, 2,5-DIMETHYL-8-[(1-PHENYL-CYCLOPROPYL)METHOXY]IMIDAZO[1,2-α]PYRIDINE MONOHYDROCHLORIDE]: the IC50 is 0.9 µM against HERG and 3 µM at Kv1.5. `Cc1cn2c(C)ccc(OCCCc3ccccc3)c2n1` [Compound 32, 2,5-DIMETHYL-8-(3-PHENYLPROPOXY)IMIDAZO[1,2-α]PYRIDINE MONOHYDROCHLORIDE]: the IC50 against HERG was 0.3 µM; on Kv1.5 it was 4 µM. The matching figures for `Cc1nc2c(OCC3(c4ccccc4)CC3)cccn2c1CO` [Compound 31, {2-METHYL-8-[(1-PHENYLCYCLOPROPYL)METHOXY]IMIDAZO[1,2-α]PYRIDIN-3-yl}-METHANOL MONOHYDROCHLORIDE]: 3 µM and 4 µM. Turning to `CCOC(=O)c1c(C)nc2c(OCC3(c4ccccc4)CC3)cccn12` [Compound 30, ETHYL 2-METHYL-8-[(1-PHENYL-CYCLOPROPYL)METHOXY]IMIDAZO[1,2-α]PYRIDINE-3-CARBOXYLATE MMONOHYDROCHLORIDE], the results for the IC50 at HERG and at Kv1.5 were 2 µM and 1 µM, respectively. The matching figures for `Cc1nc2c(OCC3(c4ccccc4)CC3)cccn2c1Cl` [Compound 39, 3-CHLORO-2-METHYL-8-[(1-PHENYL-CYCLOPROPYL)METHOXY]IMIDAZO[1,2-α]PYRIDINE MONOHYDROCHLORIDE]: 3 µM and 0.7 µM. Take `Cc1cn2ccc(C)c(OCC3(c4ccccc4)CC3)c2n1` [Compound 17, 2,7-DIMETHYL-8-[(1-PHENYL-CYCLOPROPYL)METHOXY]IMIDAZO[1,2-α]PYRIDINE MONOHYDROCHLORIDE]: the IC50 at HERG stood at 1 µM; against Kv1.5, 4 µM. Take `CC(=O)Nc1c(C)nc2c(OCCCc3ccc(Cl)cc3Cl)cccn12` [Compound 41, 3-ACETAMIDO-8-[3-(2,4-DICHLOROPHENYL)PROPOXY]-2-METHYLIMIDAZO[1,2-α]PYRIDINE MONOHYDROCHLORIDE]: the 50% inhibitory concentration (IC50) at HERG is 0.6 µM; on Kv1.5, 5 µM.

Consider `Cc1nc2c(OCC3(c4ccccc4)CC3)cccn2c1CN(C)C` [Compound 40, 3-(DIMETHYLAMINO)METHYL-2-METHYL-8-[(1-PHENYL-CYCLOPROPYL)METHOXY]-IMIDAZO[1,2-α]PYRIDINE DIHYDROCHLORIDE], for which the IC50 against HERG amounted to 1 µM; against Kv1.5 it was 23 µM. The matching figures for `Cc1nc2c(OCCCc3ccc(Cl)cc3Cl)cccn2c1Br` [Compound 19, 3-BROMO-8-[3-(2,4-DICHLOROPHENYL)PROPOXY]-2-METHYLIMIDAZO[1,2-α]PYRIDINE MONOHYDROCHLORIDE]: 0.4 µM and 0.3 µM. The corresponding values for `Cc1nc2c(OCCCc3ccc(Cl)cc3Cl)cccn2c1N` [Compound 26, 3-AMINO-8-[3-(2,4-DICHLOROPHENYL)PROPOXY]-2-METHYLIMIDAZO[1,2-α]PYRIDINE DIHYDROCHLORIDE] are 0.2 µM and 0.8 µM. `Cc1nc2c(OCCCc3ccc(Cl)cc3Cl)cccn2c1CN(C)C` [Compound 25, 8-[3-(2,4-DICHLOROPHENYL)PROPOXY]-3-[(DIMETHYLAMINO)METHYL]-2-METHYLIMIDAZO[1,2-α]PYRIDINE DIHYDROCHLORIDE]: the IC50 turned out to be 0.1 µM against HERG and 8 µM against Kv1.5.

Regarding `Cc1nc2c(OCC3(c4ccccc4)CC3)cccn2c1Br` [Compound 28, 3-BROMO-2-METHYL-8-[(1-PHENYL-CYCLOPROPYL)METHOXY]IMIDAZO[1,2-α]PYRIDINE MMONOHYDROCHLORIDE], the values for the half-inhibitory concentration (IC50) against HERG and against Kv1.5 were 2 µM and 0.8 µM, respectively. The corresponding values for `Clc1ccc(CCCOc2cccn3c4c(nc23)CCC4)c(Cl)c1` [Compound 29, 7-[3-(2,4-DICHLOROPHENYL)PROPOXY]-2,3-DIHYDRO-1H-3b,8-DIAZOCYCLOPENTA[a]indene MMONOHYDROCHLORIDE] are 0.08 µM and 0.7 µM. The corresponding values for `CC(C)c1cn2cccc(OCCCc3ccc(Cl)cc3Cl)c2n1` [Compound 20, 8-[3-(2,4-DICHLOROPHENYL)PROPOXY]-2-ISOPROPYLIMIDAZO[1,2-α]PYRIDINE MONOHYDROCHLORIDE] are 0.1 µM and 0.2 µM. `Cc1cn2ccc(C)c(OCCCc3ccc(Cl)cc3Cl)c2n1` [Compound 14, 8-[3-(2,4-DICHLOROPHENYL)PROPOXY]-2,7-DIMETHYLIMIDAZO[1,2-α]PYRIDINE MONOHYDROCHLORIDE]: inhibition against Kv1.5 was half-maximal at 0.7 µM (IC50). For `Cc1nc2c(OCCCc3ccc(Cl)cc3Cl)cccn2c1Cl` [Compound 22, 3-CHLORO-8-[3-(2,4-DICHLOROPHENYL)PROPOXY]-2-METHYLI[1,2-α]PYRIDINE MMONOHYDROCHLORIDE], the IC50 turned out to be 1 µM on HERG and 0.4 µM at Kv1.5. The corresponding values for `Cc1cn2ccc(C)c(OCCCc3ccccc3)c2n1` [Compound 18, 2,7-DIMETHYL-8-[3-PHENYLPROPRXY]IMIDAZO[1,2-α]PYRIDINE MONOHYDROCHLORIDE] are 1 µM and 3 µM. The corresponding values for `Cc1nc2c(OCCCc3ccc(Cl)cc3Cl)cccn2c1CO` [Compound 21, {8-[3-(2,4-DICHLOROPHENYL)PROPOXY]-2-METHYLIMIDAZO[1,2-α]PYRIDIN-3-yl}METHANOL MMONOHYDROCHLORIDE] are 0.06 µM and 2 µM.

Take `FC(F)(F)c1cn2cccc(OCC3(c4ccccc4)CC3)c2n1` [Compound 23, 8-[(1-PHENYLCYCLOPROPYL)METHOXY]-2-(TRIFLUOROMETHYL)IMIDAZO[1,2-α]PYRIDINE MMONOHYDROCHLORIDE]: the figures for the half-inhibitory concentration (IC50) against HERG and at Kv1.5 were 9 µM and 3 µM, respectively.
